Assay results reported in patent publication US6011006A, “Method of treating hot flushes with hexapeptides” (Novo Nordisk A/S, priority 1998, dated 2000).
Where a SMILES comes first, the peptide text is derived from it.

Test system: depressor response to spinal cord stimulation
Assay: Inhibition of depressor response to spinal cord stimulation in the pithed rat
Type: in vivo, Sprague Dawley rats
Settings: for mean reduction (% of maximal depressor response): pithed male Sprague Dawley rat, intravenous, given prior to spinal cord stimulation; for effect when repeated a second time after a second non-antagonized depressor response: all animals examined
Experimental: Male Sprague Dawley rats (300±25 g) were anesthetized with pentobarbital sodium (50 mg/kg i.p.) and polyethylene catheters were positioned in both femoral veins for the intravenous administration of drugs, such as nociceptin and analogues, and into the left femoral artery in order to measure arterial blood pressure and heart rate.
The trachea was cannulated with polyethylene tubing and the rat was pithed, ventilated and drug treated as described by Nuki Y. et al. (Effects of Dorsal Rhizotomy on Depressor Response to Spinal Cord Stimulation Mediated by Endogenous Calcitonin Gene-related Peptide in the Pithed Rat. J. Neurosurg. 1993; 79: 899-904).
Prior administration of nociceptin and related analogs inhibited the depressor response to spinal cord stimulation accordingly: […]

CC(=O)N[C@@H](CCCNC(=N)N)C(=O)N[C@@H](Cc1ccc(O)cc1)C(=O)N[C@@H](Cc1ccc(O)cc1)C(=O)N[C@@H](CCCNC(=N)N)C(=O)N[C@@H](Cc1c[nH]c2ccccc12)C(=O)N[C@@H](CCCCN)C(N)=O [Ac--Arg--Tyr--Tyr--Arg--Trp--Lys--NH2, Ac-Arg-Tyr-Tyr-Arg-Trp-Lys-NH2] (Ac-RYYRWK-NH2)
mean reduction (% of maximal depressor response) (dose 0.1 mg/kg): 54 ± 12 % of maximal depressor respons
mean reduction (% of maximal depressor response) (dose 0.3 mg/kg): 32 ± 7 % of maximal depressor respons
effect when repeated a second time after a second non-antagonized depressor response (pithed rat): seen when repeated a second time
dose-response of inhibition of depressor response (pithed rat, doses 0.1 and 0.3 mg/kg): clear dose-response

CC(C)C[C@H](NC(=O)[C@H](CCCCN)NC(=O)[C@H](CCCN=C(N)N)NC(=O)[C@H](C)NC(=O)[C@H](CO)NC(=O)[C@H](CCCCN)NC(=O)[C@H](CCCN=C(N)N)NC(=O)[C@H](C)NC(=O)CNC(=O)[C@@H](NC(=O)[C@H](Cc1ccccc1)NC(=O)CNC(=O)CNC(=O)[C@@H](N)Cc1ccccc1)[C@@H](C)O)C(=O)N[C@@H](C)C(=O)N[C@@H](CC(N)=O)C(=O)N[C@@H](CCC(N)=O)C(=O)O [nociceptin, reference compound]
mean reduction (% of maximal depressor response) (dose 0.1 mg/kg): 29 ± 9 % of maximal depressor respons
mean reduction (% of maximal depressor response) (dose 0.3 mg/kg): 23 ± 6 % of maximal depressor respons
effect when repeated a second time after a second non-antagonized depressor response (pithed rat): seen when repeated a second time
